System: BACE1
Assay: BACE1 lysine acetylation (immunoprecipitation, anti-acetylated lysine blot, LC-MS/MS mapping) in CHO cells
Format: cell-based, human
Method: Chinese Hamster Ovary (CHO) cells were grown in DMEM (Gibco BRL—Invitrogen, Carlsbad, Calif.) supplemented with 10% fetal bovine serum (FBS) and penicillin/streptomycin (Mediatech, Inc., Herndon, Va.) as described before (Puglielli et al., 2001, Nat. Cell Biol. 3: 905-912; Puglielli et al., 2003, J. Biol. Chem. 278: 19777-19783; Costantini et al., 2005, Biochem. J. 391: 59-67; Costantini et al., 2006, EMBO J. 25: 1997-2006). Cells were maintained in a humidified atmosphere with 5% CO2. For ceramide treatment, C6-ceramide (also simply called ceramide herein) was administered at the final concentration of 10 μM; treatment was started when cells were ˜30% confluent and carried out for 4 days, unless specified otherwise. Treatment with proteasome inhibitors MG-132 (5 μM) and lactacystin (10 μM) was done for 10 hours, as described earlier (Qing et al., 2004, FASEB J. 18: 1571-1573).
For the immunoprecipitation of BACE1, cell lysates were pre-cleared with BioMag Protein A (Polysciences, Inc., Warrington, Pa.); beads were used at the concentration of 15 μl of the slurry per sample and separated with a magnetic holder. BACE1 was then immunoprecipitated with anti-BACE1 antibodies overnight and recovered with BioMag Protein A as above. The immunoprecipitate-bead complexes were washed 3 times in PBS and boiled for 10 min in SDS sample buffer (Invitrogen) with β-mercaptoethanol. Beads were then separated and the samples were analyzed by reducing SDS-PAGE.
BACE1-myc was purified via affinity chromatography on a ProFound c-Myc-Tag IP/Co-IP kit (Pierce). Each BACE1 preparation was then precipitated by addition of 4 volumes of acetone, pelletted by centrifugation, washed, and vacuum-dried. […]
A portion of each purified digest, corresponding to 10 μg of pre-digested protein, was analyzed by μLC-MS/MS using a Micromass Q-TOF2 spectrometer to locate acetylation sites. […] Charge dependent collision energy profiles were empirically pre-determined. […]

In the case of `CCCCCCCCCCCCC/C=C/[C@@H](O)[C@H](CO)NC(=O)CCCCC` [ceramide, C6-ceramide], the “acetylation of BACE1Ala in vivo” value (CHO cells stably expressing BACE1Ala grown with ceramide) is reported as “did not induce acetylation”, the “number of acetylated lysine residues of BACE1” value (MS/MS of tryptic digests, two residues acetylated prior to ceramide treatment) is reported as “increased to seven” and the BACE1 acetylation (ceramide treatment of cells) is reported as “stimulates BACE1 acetylation”.

— patent US20090042993A1, “IDENTIFICATION OF NOVEL POST-TRANSLATIONAL PROTEIN MODIFICATIONS” (priority 2007, published 2009)
